{
  "source": "paper PMC12416277",
  "about": "“Phytochemical alkaloids orchestrate immunometabolism against viral infections” (National Science Review, 2025)",
  "key": {"[1]": {"system": "TBK1, STAT1 and STAT2 phosphorylation", "experiment": "Immunoblotting of p-TBK1, p-STAT1, p-STAT2 in THP-1 and MEF cells", "type": "cell-based", "details": "THP-1, MEF cells"}, "[2]": {"system": "VSV", "type": "cell-based, vesicular stomatitis virus (VSV)"}, "[3]": {"system": "IFN-β", "experiment": "IFN-β secretion in MEF cells (ELISA)", "type": "cell-based"}, "[4]": {"system": "VSV", "type": "in vivo, C57/BL6J mice", "details": "mice"}, "[5]": {"system": "A549 cells", "type": "cell-based"}, "[6]": {"system": "VSV", "type": "cell-based, vesicular stomatitis virus (VSV)", "remark": "listed apart in the source"}, "[7]": {"system": "VSV", "type": "cell-based, vesicular stomatitis virus (VSV)", "details": "Sting-/- BMDM cells vs WT"}, "[8]": {"system": "A549 cells", "experiment": "Confocal analysis of filipin-stained cholesterol distribution in A549 cells", "type": "cell-based"}, "[9]": {"system": "NPC1 and STING in lysosomal microdomains", "experiment": "Lysosome immunoprecipitation with density gradient ultracentrifugation (LysoIP-DEG) in HepG2 cells", "type": "cell-based", "description": "Figure 5. The dual functions of Tet to resist viral entry and activate antiviral immunity through the NPC1/STING axis. (a, b) Confocal analysis of Bio-Tet with CD63 (a) or NPC1 (b) in A549 cells, scale bar: 10 μm. (c) Binding affinity analysis of NPC1 with itraconazole, U18666A, or Tet was determined by SPR. (d, e) CETSA (d) and DARTS (e) analysis of NPC1 with Tet in HepG2 cells. (f) Streptavidin-covered beads with biotin, Bio-Tet, Bio-Tet + Tet were incubated with cell lysates. As indicated, the levels of NPC1 protein in bound proteins (IP) and total proteins (Input) were determined using immunoblotting. (g) Viral mRNA expression in siNPC1-transfected cells treated with Tet. (h) Viral mRNA expression in sgRNA-EV, sgRNA Npc1, and sgRNA Npc1 cells transfected with Flag-NPC1 treated with Tet. (i) Ifit1 and Ifit2 mRNA expression in sgRNA-EV, sgRNA Npc1, and sgRNA Npc1 cells transfected with Flag-NPC1 stimulated with DMXAA and Tet. (j) Schematic of LysoIP-DEG. (k) Immunoblotting analysis of the indicated proteins in LysoIP-DEG in Tet-treated HepG2 cells. (l) Schematic model of NPC1/STING axis-mediated viral inhibition by Tet. […] P values were calculated using one-way ANOVA (g, h, i). […]\nThe LysoIP-DEG was performed as previously described with minor modifications. […] The collected samples were dissolved in 50 µL 2 × SDS loading buffer and then assessed through western blotting analysis."}},
  "note": "Where two headings read alike, the source gives them in different places.",
  "data": [
    {"compound": "COc1ccc2cc1Oc1ccc(cc1)C[C@H]1c3cc(c(OC)cc3CCN1C)Oc1c(OC)c(OC)cc3c1[C@H](C2)N(C)CC3", "note": "[Tet, tetrandrine]", "values": [
      {"measurement": "phosphorylation of TBK1, STAT1 and STAT2", "setting": "[1]", "value": "increased the phosphorylation of TBK1, STAT1 and STAT2 in a time- and dose-dependent manner"},
      {"measurement": "VSV infection", "setting": "[2]", "value": "effectively suppressed"},
      {"measurement": "IFN-β production", "setting": "[3]", "value": "induced"},
      {"measurement": "IL-6 level in serum", "setting": "[4]; VSV infection", "value": "markedly decreased"},
      {"measurement": "TNF-α level in serum", "setting": "[4]; VSV infection", "value": "markedly decreased"},
      {"measurement": "VSV-G protein expression in lungs and spleens", "setting": "[4]; VSV infection", "value": "inhibited"},
      {"measurement": "lung pathology (H&E)", "setting": "[4]; VSV infection", "value": "reduced lung pathology and cellular infiltrations"},
      {"measurement": "reduction of VSV genome copies in liver, lung, and spleen tissues", "setting": "[4]; intraperitoneal and intragastric, 10–60 mg/kg, 24 hours pre-VSV infection", "value": "0.5–1 log₁₀"},
      {"measurement": "intracellular cholesterol levels", "setting": "[5]", "value": "higher intracellular cholesterol levels"},
      {"measurement": "antiviral effect against VSV", "setting": "[6]", "value": "diminished"},
      {"measurement": "antiviral effect against VSV", "setting": "[7]", "value": "markedly reduced"},
      {"measurement": "cholesterol distribution / lysosomal cholesterol accumulation", "setting": "[8]", "value": "shifting it from the plasma membrane to endosomal and lysosomal compartments"},
      {"measurement": "NPC1 and STING expression in lysosomal microdomains", "setting": "[9]", "value": "enhanced NPC1 and STING expression in lysosomal microdomains after 6 hours"}
    ]}
  ]
}
